Data on four molecules can be found in ChEMBL document CHEMBL5325392, “Development of 3α,7α-dihydroxy-6α-ethyl-24-nor-5β-cholan-23-sulfate sodium salt (INT-767): Process optimization, synthesis and characterization of metabolites” (Eur J Med Chem, 2022).

For assay [1], the target named is T1, Bile acid receptor (Homo sapiens) (UniProt Q96RI1).
T1 sequence (whole entry): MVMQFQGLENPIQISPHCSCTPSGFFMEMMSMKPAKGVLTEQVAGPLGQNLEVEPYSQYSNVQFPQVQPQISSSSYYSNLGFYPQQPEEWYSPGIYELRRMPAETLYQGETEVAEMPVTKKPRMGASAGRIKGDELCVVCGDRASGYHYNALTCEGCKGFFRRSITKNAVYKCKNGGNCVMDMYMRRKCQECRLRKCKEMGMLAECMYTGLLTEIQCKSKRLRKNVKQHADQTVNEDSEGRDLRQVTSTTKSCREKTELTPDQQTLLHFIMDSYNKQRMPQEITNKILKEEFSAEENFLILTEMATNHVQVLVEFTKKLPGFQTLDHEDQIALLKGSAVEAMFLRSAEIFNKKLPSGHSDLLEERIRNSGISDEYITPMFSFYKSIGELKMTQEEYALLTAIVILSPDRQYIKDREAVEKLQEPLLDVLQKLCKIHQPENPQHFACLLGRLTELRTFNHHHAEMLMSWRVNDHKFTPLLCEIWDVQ
The assay can be described thus: Agonist activity at glutathione transferase-tagged human FXR ligand binding domain assessed as biotinylated Src1 peptide recruitment incubated for 30 mins by AlphaScreen assay relative to CDCA. To be noted: filed as agonist.

Assay [2] addresses T2, Bile acid receptor (Homo sapiens, UniProt Q96RI1).
T2 sequence (Q96RI1 whole entry): T1 sequence (whole entry)
Kind of assay: Agonist activity at glutathione transferase-tagged human FXR ligand binding domain assessed as biotinylated Src1 peptide recruitment incubated for 30 mins by AlphaScreen assay. On the technique in general: Alpha assays give light when donor and acceptor beads are brought close together.

Assay [3] has as its target T3, G-protein coupled bile acid receptor 1 (Homo sapiens, UniProt Q8TDU6).
T3 sequence (Q8TDU6 whole entry): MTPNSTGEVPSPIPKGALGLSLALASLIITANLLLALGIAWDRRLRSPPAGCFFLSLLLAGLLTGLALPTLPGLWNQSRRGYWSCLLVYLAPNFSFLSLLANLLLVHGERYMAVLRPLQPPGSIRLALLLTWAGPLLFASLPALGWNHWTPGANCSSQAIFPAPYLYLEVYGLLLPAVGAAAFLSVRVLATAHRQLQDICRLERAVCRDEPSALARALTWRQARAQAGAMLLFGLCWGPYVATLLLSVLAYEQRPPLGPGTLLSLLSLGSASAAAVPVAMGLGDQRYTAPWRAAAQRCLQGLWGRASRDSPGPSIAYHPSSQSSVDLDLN
Kind of assay: Agonist activity at TGR5 receptor in human NCI-H716 cells assessed as activation of intracellular cAMP production incubated for 1 hr by HTR-FRET assay. The assay is classed as functional, cell-based.

For orientation: EC50 means the concentration that produces a half-maximal response.

On to `CC[C@H]1[C@@H](O)[C@@H]2[C@H](CC[C@]3(C)[C@@H]([C@H](C)CCO)CC[C@@H]23)[C@@]2(C)CC[C@@H](O)C[C@@H]12`, for which, in assay [1], the Efficacy came to 165%. The EC50 in assay [2] stood at 1.2 µM; in assay [3] it was 1.1 µM.

As to `CC[C@H]1[C@@H](O)[C@@H]2[C@H](CC[C@]3(C)[C@@H]([C@H](C)CCOS(=O)(=O)O)CC[C@@H]23)[C@@]2(C)CCC(=O)C[C@@H]12`, the Efficacy in assay [1] was determined as 162%. The half-maximal effective concentration (EC50) in assay [2] worked out at 0.08 µM; in assay [3], 5 µM.

Regarding `CC[C@H]1[C@@H](O)[C@@H]2[C@H](CC[C@]3(C)[C@@H]([C@H](C)CCOS(=O)(=O)O)CC[C@@H]23)[C@@]2(C)CC[C@@H](O[C@@H]3O[C@H](CC(=O)O)[C@@H](O)[C@H](O)[C@H]3O)C[C@@H]12`, the Efficacy in assay [1] was 115%. Further, the EC50 in assay [2] was 5 µM; in assay [3], more than 100 µM.

On to `CC[C@H]1[C@@H](O)[C@@H]2[C@H](CC[C@]3(C)[C@@H]([C@H](C)CCOS(=O)(=O)O)CC[C@@H]23)[C@@]2(C)CC[C@@H](OS(=O)(=O)O)C[C@@H]12`, for which the EC50 in assay [2] and in assay [3] was more than 100 µM in each case.
